Test [1] in a line: Cytotoxicity against human MCF7/TxR cells assessed as reduction in cell viability measured after 24 hrs by MTT assay. Format: functional, cell-based.
The nature of test [2]: Resistance index, ratio of IC50 for human MCF7/TxR cells to IC50 for human MCF7 cells. It is filed as functional.
For a further test, the system named is A549. Briefly: Cytotoxicity against human A549 cells assessed as reduction in cell viability measured after 24 hrs by MTT assay. The note with it: A549, 24 h.
Test [3] can be described thus: Cytotoxicity against human A549/TxR cells assessed as reduction in cell viability measured after 24 hrs by MTT assay. Format: functional, cell-based. (In general: Formazan colour is commonly taken as a measure of viable cells.)
A further test has as its system HeLa. The test can be described thus: Cytotoxicity against human HeLa cells assessed as reduction in cell viability measured after 24 hrs by MTT assay. It is filed as functional, cell-based.
Another test has as its system MCF7. Briefly: Cytotoxicity against human MCF7 cells assessed as reduction in cell viability measured after 24 hrs by MTT assay. The note with it: MCF7, 24 h.
Test [4] concerns HT-29. Briefly: Antitumor activity against human HT-29 cells xenografted in BALB/c nude mouse assessed as reduction in tumor weight at 20 mg/kg, ip administered as 2 days interval for 3 weeks and measured 3 weeks post-initial dosing relative to control. Set-up: scale not given: the % may be the effect or the level left. Format: functional. On the technique in general: A xenograft is tissue or cells of one species grown in another, often human tumour cells in immunodeficient mice.

For test [5], the system named is HT-29. Briefly: Cytotoxicity against human HT-29 cells assessed as reduction in cell viability measured after 24 hrs by MTT assay. It is filed as functional, cell-based. To be noted: HT-29, 24 h.
The nature of test [6]: Inhibition of porcine brain tubulin polymerization measured at 1 min interval for 60 mins by fluorescence assay. Also on record: species or system Sus scrofa.
The nature of test [7]: Resistance index, ratio of IC50 for human A549/TxR cells to IC50 for human A549 cells. It is filed as functional.
The next test concerns MDA-MB-231. Briefly: Cytotoxicity against human MDA-MB-231 cells assessed as reduction in cell viability measured after 24 hrs by MTT assay. The note with it: MDA-MB-231, 24 h. It is filed as functional, cell-based.

Experimental findings from ChEMBL document CHEMBL5137013 (Eur J Med Chem, 2022) are described below.

For the molecule `COc1ccc(/C=C\c2cc(OC)c(OC)c(OC)c2)cc1O` [COMBRETASTATIN A4], the IC50 stood at 17 nM in test [1]; 46 nM in the test on A549; 96 nM in test [3]; 7 nM with HeLa; 9 nM in the test on MCF7; 430 nM in the test with HT-29 [5]. Moreover, the IC50 turned out to be 1210 nM in test [6] and 13 nM in the test on MDA-MB-231. For the same molecule, the entries for the “Ratio IC50” value in test [2] and in test [7] were 1.8 and 2.1, respectively. In addition, in the test on HT-29 [4], the Activity worked out at 17.4%.

The IC50 is the concentration that inhibits the measured activity by half.
